From PMC12221116, “Novel Quinazolinones Active against Multidrug‐Resistant Mycobacterium Tuberculosis: Synthesis, Antimicrobial Evaluation, and in Silico Exploration of Penicillin‐Binding Protein 1A as a Potential Target” (Chemmedchem, 2025)
In brackets after ≈: the same amount, converted by molar mass. Several values for one entry are separate records, joined by “and”; a condition that tells them apart may be missing. Equal values may be shown once. Read-outs that look alike come from different tables or passages of the source.

What was measured:
[1] = tested on: Mycobacterium tuberculosis; details: target CHEMBL360; ref ChEMBL; cited from earlier work
M. smegmatis = experiment: Microdilution broth resazurin assay, MIC; assay type: cell-based, Mycolicibacterium smegmatis
MRC-5 = experiment: cells; details: Homo sapiens
MDR Mtb H37Rv = experiment: microbe, parasite or virus in culture; assay type: cell-based; details: Mycobacterium tuberculosis, read-out: MIC MDR Mtb H37Rv
Mtb H37Ra = experiment: Microdilution broth resazurin assay, MIC; assay type: cell-based, Mycobacterium tuberculosis
Mtb H37Rv = experiment: Microplate Alamar Blue assay, MIC; assay type: cell-based, Mycobacterium tuberculosis; details: Mycobacterium tuberculosis, H37RV
M. avium = experiment: Microdilution broth resazurin assay, MIC; assay type: cell-based, Mycobacterium avium; details: for MIC: Mycobacterium avium, read-out: Antimycobacterial Activity MIC M. avium
M. aurum = experiment: Microdilution broth resazurin assay, MIC; assay type: cell-based, Mycolicibacterium aurum
M. kansasii = experiment: Microplate Alamar Blue assay, MIC; assay type: cell-based, Mycobacterium kansasii; details: Mycobacterium kansasii; read-out: Antimycobacterial Activity MIC M. kans.
Fungi = experiment: Antifungal microdilution screening (eight strains); assay type: cell-based; details: read after 24 and 48 h (72 and 120 h for TI), highest tested concentration 500 μM
HepG2 = experiment: cells; details: Homo sapiens
Bacteria, incl. SA = experiment: Antibacterial microdilution screening (eight strains); assay type: cell-based; details: read after 24 and 48 h, highest tested concentration 500 μM
Replicative DNA helicase = target: Replicative DNA helicase; set-up: method as in ChEMBL; details: target CHEMBL1741192; ref ChEMBL; cited from earlier work
Protein RecA = tested on: Protein RecA; set-up: method as in ChEMBL; details: target CHEMBL1741171; ref ChEMBL; cited from earlier work
[2] = MRC5, 24 h, read-out: IC50 for MRC-5 [24 h]
[3] = MRC5, 72 h, read-out: IC50 for MRC-5 [72 h]
[4] = Mycobacterium tuberculosis, H37RA; calculated from the measured MIC in mass concentration units; read-out: MIC Mtb H37Ra
[5] = Microplate Alamar Blue assay, read-out: Antimycobacterial Activity MIC Mtb H37Rv
[6] = calculated from the measured MIC in mass concentration units, read-out: MIC Mtb H37Rv
[7] = HepG2, 24 h, read-out: IC50 for HepG2 [24 h]
[8] = HepG2, 72 h, read-out: IC50 for HepG2 [72 h]

SMILES	MIC Mycobacterium tuberculosis [1] [µg/mL]	IC50 (MRC-5; [2]) [µM]	IC50 (MRC-5; [3]) [µM]	MIC (MDR Mtb H37Rv) [µM]	MIC (Mtb H37Ra; [4]) [µM]	MIC (Mtb H37Rv; [5]) [µg/mL]	MIC (Mtb H37Rv; [6]) [µM]	MIC (M. avium) [µg/mL]	MIC (M. kansasii) [µg/mL]	MIC Fungi (Fungi)	IC50 (HepG2; [7]) [µM]	IC50 (HepG2; [8]) [µM]	MIC Bacteria, incl. SA (Bacteria, incl. SA)	also measured
Cc1nc2ccc(-c3ccccc3)cc2c(=O)n1-c1ccccc1 [CHEMBL4442905]	> 64	–	–	–	–	–	–	–	–	–	–	–	–	–
Cc1nc2cc(Cl)ccc2c(=O)n1Cc1ccc(F)cc1 [Compound 19]	–	> 100	> 100	41 to 165 (≈ 12.4 to 50 µg/mL)	26	25	83	15.6 (≈ 51.6 µM)	> 100	inactive	> 50	> 50	inactive	MIC (M. smegmatis; Mycolicibacterium smegmatis; read-out: Antimycobacterial Activity MIC M. smeg.): 31.2 µg/mL (≈ 103 µM); MIC (Mtb H37Ra; Mycobacterium tuberculosis, H37RA; read-out: Antimycobacterial Activity MIC Mtb H37Ra): 7.81 µg/mL; MIC (M. aurum; Mycolicibacterium aurum; read-out: Antimycobacterial Activity MIC M. aurum): 31.2 µg/mL (≈ 103 µM)
O=c1c2ccccc2nc(/C=C/c2cccnc2)n1Cc1ccccc1 [CHEMBL1567670]	–	–	–	–	–	–	–	–	–	–	–	–	–	AC50 (Replicative DNA helicase): 13.6 µM and 9.29 µM; EC50 (Protein RecA): 9.92 µM
C#CCNc1ccc2c(=O)n(-c3ccccc3)c(C)nc2c1 [CHEMBL4444032]	4 (≈ 13.8 µM)	–	–	–	–	–	–	–	–	–	–	–	–	–
COc1ccc(Cn2c(C)nc3cc(Cl)ccc3c2=O)cc1 [Compound 17]	–	> 100	> 100	40 (≈ 12.6 µg/mL)	25	12.5	40	≥ 500	> 100	inactive	> 50	> 50	inactive	Antimycobacterial Activity MIC M. smeg. (M. smegmatis): 31.25 µg/mL; MIC (M. smegmatis; Mycolicibacterium smegmatis, read-out: Antimycobacterial Activity MIC M. smeg.): 31.2 µg/mL (≈ 99.3 µM); Antimycobacterial Activity MIC Mtb H37Ra (Mtb H37Ra): 7.81 µg/mL; MIC (Mtb H37Ra; Mycobacterium tuberculosis, H37RA, read-out: Antimycobacterial Activity MIC Mtb H37Ra): 7.81 µg/mL; MIC (Mtb H37Rv; read-out: Antimycobacterial Activity MIC Mtb H37Rv, Table S5 matching pairs series A and B): > 100 µg/mL; Antimycobacterial Activity MIC M. avium (M. avium; Table S5 matching pairs series A and B): ≥ 500 µg/mL; Antimycobacterial Activity MIC M. aurum (M. aurum): 15.625 µg/mL; MIC (M. aurum; Mycolicibacterium aurum, read-out: Antimycobacterial Activity MIC M. aurum): 15.6 µg/mL (≈ 49.6 µM)
